Source: US20260000781A1, “FC CONJUGATES INCLUDING AN INHIBITOR OF CD73 AND USES THEREOF” (Cidara Therapeutics, Inc., priority 2022, published 2026)
Read-outs that look alike come from different tables or passages of the source.

Legend:
[1] = target: T1, CD73 on EMT6 mouse mammary carcinoma cells (Mus musculus, UniProt Q61503); experiment: CD73 enzyme inhibition assay with mouse EMT6 cells (PiColorLock); assay type: cell-based; details: mouse EMT6 cancer cells, AMP 100 μM
T1 construct: host or cells: EMT6
T1 sequence (Q61503 29-551): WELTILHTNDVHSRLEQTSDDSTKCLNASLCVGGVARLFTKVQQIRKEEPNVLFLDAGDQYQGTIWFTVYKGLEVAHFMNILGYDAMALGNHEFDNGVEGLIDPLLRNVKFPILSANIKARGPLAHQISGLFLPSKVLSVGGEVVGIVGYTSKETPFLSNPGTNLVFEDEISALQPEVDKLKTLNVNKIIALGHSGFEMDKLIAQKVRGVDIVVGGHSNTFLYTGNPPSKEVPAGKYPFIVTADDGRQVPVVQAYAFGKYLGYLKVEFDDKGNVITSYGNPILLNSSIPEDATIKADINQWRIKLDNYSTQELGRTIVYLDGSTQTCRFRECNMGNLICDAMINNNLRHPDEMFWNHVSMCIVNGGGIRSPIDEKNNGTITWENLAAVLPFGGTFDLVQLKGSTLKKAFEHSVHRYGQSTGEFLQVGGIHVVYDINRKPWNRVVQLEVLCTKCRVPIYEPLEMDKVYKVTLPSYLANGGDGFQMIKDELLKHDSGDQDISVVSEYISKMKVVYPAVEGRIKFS
Method: The cell-based CD73 enzyme inhibition assay was performed in a 96-well plate format using the Phosphate Assay Kit—PiColorLock™ in accordance with the manufacturer's instructions (cat no. 270004, Abcam). AMP is enzymatically converted by CD73 to adenosine and phosphate. Therefore, adenosine concentrations can be inferred from phosphate concentrations in 1:1 ratio. Both EMT6 mouse mammary carcinoma cells (ATCC CRL-2755) and human peripheral blood mononuclear cells (PBMC; Stemcell Technologies cat no. 70025, lot no. 2202401007) were assayed. The EMT6 cells were washed three times with a phosphate free CD73 buffer, detached from flasks using a cell scraper, and seeded at 3×10^3 cells/well in 100 μL into 96-well tissue culture-treated plates. Human PBMC cells were washed three times by suspending in phosphate free CD73 buffer and pelleting in a centrifuge at 125×g for 10 min at room temperature and seeded at 5×10^5 cells/well in 100 μL into 96-well tissue culture-treated plates. […] AMP was added at 100 μM and cells, test articles, and AMP were incubated together for 3 h and 24 h at 37° C., 5% CO2. The CD73 activity in the supernatant was quantified using the PiColorLock Phosphate assay kit. Colorimetric detection reagent was added and the free phosphate from the CD73 reaction was measured by reading the absorbance at 635 nm using the EnSpire multimode plate reader (PerkinElmer). Wells without test inhibitor (CD73 positive control) were included on each plate. Wells without test inhibitor and cells (background) were subtracted from all wells. The percent CD73 inhibition versus inhibitor concentration was plotted using GraphPad Prism Version 8 and IC50's calculated using nonlinear regression analysis (Sigmoidal, 4 PL).

[2] = target: T2, CD73 expressed on the MDA-MB-231 cell surface (Homo sapiens, UniProt P21589); experiment: Cell-based CD73 enzyme inhibition assay on MDA-MB-231 cells; details: AMP 400 μM, 3 h (FIG. 3)
T2 construct: host or cells: MDA-MB-231
T2 sequence (P21589 27-549): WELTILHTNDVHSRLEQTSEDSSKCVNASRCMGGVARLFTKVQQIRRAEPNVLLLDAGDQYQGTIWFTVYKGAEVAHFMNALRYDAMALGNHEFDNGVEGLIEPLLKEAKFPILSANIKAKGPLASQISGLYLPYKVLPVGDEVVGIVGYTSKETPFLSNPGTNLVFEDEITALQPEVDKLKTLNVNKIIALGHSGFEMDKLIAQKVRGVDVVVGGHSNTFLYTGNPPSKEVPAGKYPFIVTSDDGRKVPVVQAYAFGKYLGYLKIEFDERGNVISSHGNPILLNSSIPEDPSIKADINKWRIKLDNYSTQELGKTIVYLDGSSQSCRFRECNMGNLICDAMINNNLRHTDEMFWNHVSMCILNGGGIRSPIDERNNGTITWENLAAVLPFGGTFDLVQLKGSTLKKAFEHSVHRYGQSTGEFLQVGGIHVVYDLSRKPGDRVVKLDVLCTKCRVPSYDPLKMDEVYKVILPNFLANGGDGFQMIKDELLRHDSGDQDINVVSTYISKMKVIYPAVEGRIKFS
Method: The cell-based CD73 enzyme inhibition assay was performed essentially as described above for the cell-free assay, with the following modifications.
(§1) The cell-based CD73 enzyme inhibition assay was performed essentially as described above for the cell-free assay, with the following modifications. MDA-MB-231 human breast adenocarcinoma cells (ATCC CRM-HTB-26) were seeded at 2×10^4 cells/well/100 μL into 96-well tissue culture-treated plates (Corning Costar cat no. 3596) and incubated overnight at 37° C., 5% CO2. […] The 96-well plate was then centrifuged at 125×g for 5 min at room temperature and ATP (25 μL/well, 100 μM final) was combined with supernatant (25 μL/well) in a white opaque 96-well plate (Corning Costar cat no. 3912).
as §1, with “3912). […] Percent CD73 inhibition (y-axis) versus log10 inhibitor concentration (x-axis) were plotted using GraphPad Prism Version 8 and IC50's calculated using nonlinear regression analysis (Sigmoidal, 4 PL).” for “3912).”

[3] = target: T3, CD73 on MDA-MB-231 cells (Homo sapiens, UniProt P21589); experiment: CD73 internalization assay (Fab-ZAP); assay type: cell-based
T3 construct: host or cells: MDA-MB-231
T3 sequence (P21589 27-549): T2 sequence (P21589 27-549)
Method: Cells were plated into white tissue culture-treated 96 well plates (Corning cat no. 3917) at 5×10^3 to 1×10^4 cells/well in 100 μL in RPMI (Gibco cat no. 11875093)+10% FBS (Gibco cat no. 16140071) and incubated overnight at 37° C. with 5% CO2. Serial dilutions of test article (TA) from 0.00002 nM-200 nM (2× final concentration) were pre-incubated with 100 nM Fab-ZAP reagent (2× final concentration) for 30 min at room temperature. Cells were washed once with 150 μL/well 1×PBS (Gibco cat no. 10010023), followed by the addition of 50 μL/well of media and 50 μL/well TA/Fab-ZAP mix. Cells were then incubated for 72 h at 37° C. with 5% CO2 and viability was determined after 72 h via the CellTiter-Glo assay (Promega cat no. G7570) following the manufacturer's instructions. Cell viability RLU versus log10 nM drug concentration was plotted using GraphPad Prism. The % CD73 internalization was calculated using the following formula: % CD73 internalization=[1−RLU (sample)/RLU (untreated cells)]×100%. The EC50's for each TA was calculated using the 4 PL non-linear regression analysis in GraphPad Prism software.
Cells were plated into white tissue culture-treated 96 well plates (Corning cat no. 3917) at 2×10^3 cells/well in 100 μL in RPMI (Gibco cat no. 11875093)+10% FBS (Gibco cat no. 16140071) and incubated overnight at 37° C. with 5% CO2. Serial dilutions of test article (TA) from 0.06 nM-20 nM (2× final concentration) were pre-incubated with 100 nM Fab-ZAP reagent (2× final concentration) for 30 min at room temperature. […] Cells were then incubated for 96 h at 37° C. with 5% CO2 and viability was determined after 96 h via the CellTiter-Glo assay (Promega cat no. G7570) following the manufacturer's instructions. […] The % CD73 internalization was calculated using the following formula: % CD73 internalization=[1−RLU (sample)/RLU (untreated cells)]×100%. The EC50's for each TA was calculated using the 4 PL non-linear regression analysis in GraphPad Prism software.

Structure (SMILES)	IC50 ([1]; 3 h IC50 [nM], 3 h)	IC50 ([1]; 24 h, read-out: 24 h IC50)	IC50 [2]	Cell internalization EC50 (nM) ([3]; 72 h (Table 11))	Cell internalization EC50 (nM) ([3]; 96 h (Table 23))	IC50 ([1]; read-out: 3 h IC50, 3 h)
C[C@H](Nc1cc(Cl)nc2c1cnn2[C@@H]1O[C@H](COP(=O)(O)CP(=O)(O)O)[C@@H](O)[C@H]1O)c1ccccc1F [AB680]	1.06 nM	2.29 nM	–	–	–	–
COC[C@](CO)(OC[C@H]1O[C@@H](n2ncc3c(NC4CCCC4)nc(Cl)nc32)[C@H](O)[C@@H]1O)P(=O)(O)O [OP-5244]	–	0.51 nM	310 pM	did not induce receptor internalization	No activity	0.28 nM
O=P(O)(O)COC[C@H]1O[C@@H](n2ncc3c(N4CC5(CCc6ccccc65)C4)nc(Cl)nc32)[C@H](O)[C@@H]1O [SHR170008]	–	–	4870 pM	did not induce receptor internalization	–	–
